{"source": "paper PMC7765409", "about": "(International Journal of Molecular Sciences, 2020)", "key": {"[1]": {"tested_on": "oleic acid-induced lipid droplet accumulation in hiPSC-Hep", "assay": "oleic acid-induced lipid droplet accumulation in hiPSC-Hep", "assay_type": "cell-based, human", "conditions": "exogenous oleic acid", "description": "(§1) A monolayer of hiPSC-Hep, with hepatocyte-like morphology, gene expression and function, was used as a cell model for induction of steatosis and high-content analysis to detect neutral lipid droplet accumulation and inhibition. […] Incubation of the cells with a saturated fluorescently labeled fatty acid analog confirmed localization into neutral lipid vacuoles (Supplementary Figure S1C–F)."}, "[2]": {"tested_on": "palmitic acid-induced lipid accumulation in hiPSC-Hep", "assay": "palmitic acid-induced lipid accumulation in hiPSC-Hep", "assay_type": "cell-based, human", "conditions": "exogenous palmitic acid", "description": "as §1"}, "DGAT2 mRNA": {"tested_on": "DGAT2 mRNA", "design": "method as in PMID 30254132", "conditions": "after 4 and 18 h treatment with thapsigargin and free-fatty acids; cited from earlier work"}, "[3]": {"design": "method as in PMID 29226620", "conditions": "cited from earlier work"}, "FXR target genes": {"tested_on": "FXR target genes", "assay": "transcriptomic (RNA-seq) analysis of OCA pre-incubated TG/FA-treated hiPSC-Hep", "assay_type": "cell-based, human", "conditions": "TG/FA+OCA vs TG/FA", "description": "The phenotypic assay was measured and quantified by BODIPY 493/503-stained neutral lipid droplets multiplexed with Hoechst dye to detect viable cell count, as shown by the process in Supplementary Figure S2. Obeticholic acid (OCA), a clinically advanced therapeutic and farnesoid X receptor (FXR) agonist evaluated in phase III trials for the treatment of NASH [40], was used as an inhibitor control of lipid accumulation (Figure 1A). […] Our results are in accordance with therapeutic plasma concentrations of OCA (0.290 µM) and with studies performed in a human liver in vitro system (0.5 µM). […] FXR target genes, including fibroblast growth factor 19 (FGF19), solute carrier family 51 subunit Beta (SLC51B), cytochrome P450 7A1 (CYP7A1) and perilipin 1 (PLIN1) are regulated by OCA under our treatment conditions.\nZ’ = 1 − (3 SD of sample group + 3 SD of negative control)/(mean of sample group−mean of negative control). FA/TG-treated wells were defined as general sample group and BSA-treated wells were defined as negative controls for calculating Z’-factor. In our assay, the Z’ criteria were as follows: Z’ = 0.5–1.0 corresponds to an excellent assay; Z’ = 0–0.5 corresponds to a suboptimal assay; Z’ < 0 corresponds to an unsuccessful assay. Percent inhibition of lipid accumulation was calculated based on the positive (BSA-treated) and negative (FA/TG-treated) controls on each plate: % inhibition = 100 * [(compound value–AVEneg)/(AVEpos–AVEneg)]. RNA-seq data were analyzed by iPathwayGuide (Advaita Bioinformatics: http://www.advaitabio.com/ipathwayguide.html) as described in [35]. Differences between two groups were analyzed using Student’s t-tests. Fold-change expression values obtained from RT-qPCR were analyzed by one-way analysis of variance (ANOVA) followed by post hoc comparisons of group means with the Tukey’s multiple comparison tests at an overall confidence level of 95% using Prism software (GraphPad)."}, "[4]": {"tested_on": "lipid droplet accumulation in TG/FA-treated hiPSC-Hep", "assay": "hiPSC-Hep ER-stress (TG/FA) induced lipid droplet accumulation high-content assay, integrated spot signal (BODIPY 493/503)", "assay_type": "cell-based, human", "conditions": "for IC50: Homo sapiens, cells pre-treated 24 h and co-treated additional 18 h with TG/FA", "description": "Cryopreserved hiPSC-derived hepatocytes (iCell Hepatocytes 2.0; Cellular Dynamics International Madison, WI) plated at a density of 36 K/well in 384-well on collagen I coated Corning Biocoat 384-well plates (BD Biosciences, 101306), were cultured to promote hepatic differentiation and maturation into hepatic-like cells as previously described. Hepatocytes were plated according to the manufacturer’s protocol in a volume of 50 µL/well using BioTek^TM Microflo^TM select dispenser (#7170011, BioTek Instruments) for high-throughput and high-content analysis assay (HT/HCA) drug discovery. After plating cells were cultured according to vendor specifications in a cell culture incubator at 37 °C, 5% CO2 for 3–4 h. Then, 40 µL spent medium was aspirated using multi-channel automated pipette handling system (Integra ViaFlo 96/384) and replaced with 40 µL (80% exchange) of fresh plating medium. Approximately 24 h post-plating 80% of medium was replaced every day thereafter. At day 5 of differentiation, 40 µL/well spent medium was replaced with maintenance medium (MM) consisting of William’s E medium (Thermo Fisher Scientific) supplemented with 0.1 µM dexamethasone and hepatocyte maintenance supplement pack (Thermo Fisher Scientific) for an additional 2–3 days before HCA. The overview of automated HT system for hiPSC-derived hepatocytes differentiation, staining and image analysis for phenotypic screening is depicted in Figure S2. Primary screening hit confirmation and dose response studies were performed on different batches of hiPSC-derived hepatocytes.\nTo induce hepatic triglycerides (TAG) accumulation, before staining, cells were treated with 20 μL of 2× FA mixture, consisting of different proportions of oleic acid (OA-BSA, 25 µM, Sigma, #O3008), palmitic acid (PA-BSA, 200 µM, Agilent Technologies, #102720100) and thapsigargin (TG, 1 µM, Abcam, #120286) with a total volume of 40 μL/well. The TG/FA mixture was dispensed with BioTek^TM Microflo^TM select dispenser (#7170011, BioTek Instruments) and incubated for 18 h. Next, to label TAG accumulation stored into cytoplasmic lipid droplets, upon treatment, living cells were washed two times with warm Dulbecco’s Phosphate-Buffered Saline 1X (PBS, Corning, #21-031CV) with a handheld 384-channel electronic pipette device and then incubated for 15 min with a lipophilic dye, BODIPY 493/503 (8 ug/mL Life technologies, #D3922-green), in PBS at 37 °C. BODIPY (493/503) has become the standard dye utilized by scientists to study lipid droplets in live cells. After three washes with PBS cells were fixed with 4% paraformaldehyde methanol-free (PFA, Electron Microscopy Science, #15710) in PBS for 15 min at room temperature (RT). Cell health was monitored by Hoechst 33342 (10 ug/mL, Molecular Probe, #H21492) staining in PBS for nuclear count. After TAG staining the 384-assay plates were loaded in an automated confocal microscope with Opera High Content Imaging System (PerkinElmer, Waltham, MA, USA). Dyes were excited and images were captured on the Hoechst 3342 and Alexa Fluor 488 channels and signals were collected with a long pass filter 410 and 505 nm, for nuclei and TAG, respectively, at objective 20× air objective for HCA. To capture enough cells (>600) for the analysis, eight fields per well were imaged. Hoechst 33342 fluorescence was used to identify the nuclear region and cell counts. To assess intracellular fat deposits, BODIPY 493/503 fluorescence intensity was measured inside the cytoplasm region.\nFor the HCA screen, compounds tested for their inhibitory effects, were used as single dose at a 10 μM final concentration of compound in DMSO in each well (0.1% DMSO) in 20 μL of maintenance medium. Prior to compound addition, 30 µL/well of medium was removed from hiPSC-Hep cells screening plates with ViaFlo ([…]). Pre-spotted 80 nL of 10 mM compound were diluted to 20 μM (0.2% DMSO) in 40 μL of maintenance medium in the source 384-well plate. […]"}}, "note": "Where two headings read alike, the source gives them in different places.", "data": [{"smiles": "CCC/C=C/C/C=C/C=C/C=N/NN=O", "note": "[Triacsin C]", "values": [{"measurement": "inhibition of oleic acid-induced lipid droplet accumulation", "setting": "[1]", "value": "fully inhibits"}, {"measurement": "inhibition of oleic acid-induced lipid droplet accumulation", "setting": "[1]; listed as triacsin C", "value": "completely inhibits"}, {"measurement": "inhibition of palmitic acid-induced lipid accumulation", "setting": "[2]", "value": "did not inhibit"}]}, {"smiles": "CC[C@H]1[C@@H](O)[C@@H]2[C@H](CC[C@]3(C)[C@@H]([C@H](C)CCC(=O)O)CC[C@@H]23)[C@@]2(C)CC[C@@H](O)C[C@@H]12", "note": "[OCA, Obeticholic acid]", "values": [{"measurement": "effect on DGAT2 expression", "setting": "DGAT2 mRNA", "value": "significantly inhibited"}, {"measurement": "therapeutic plasma concentrations", "setting": "[3]", "value": 0.290, "unit": "µM"}, {"measurement": "CYP7A1 gene regulation", "setting": "FXR target genes", "value": "downregulation"}, {"measurement": "FGF19 gene regulation", "setting": "FXR target genes", "value": "upregulation"}, {"measurement": "PLIN1 gene regulation", "setting": "FXR target genes", "value": "upregulation"}, {"measurement": "SLC51B gene regulation", "setting": "FXR target genes", "value": "downregulation"}, {"measurement": "IC50", "setting": "[4]; read-out: half maximal inhibitory concentration (IC50) for reduction of lipid accumulation", "value": 630, "unit": "nM"}, {"measurement": "IC50", "setting": "[4]; read-out: pIC50 for reduction of lipid accumulation (converted)", "value": 631, "unit": "nM"}, {"measurement": "lipid content of lipid droplet-stained cells", "setting": "[4]; OCA at 20 µM in TG/FA-treated cells vs BSA-treated control", "value": "reduced lipid content to control levels"}]}]}
